Data on 19 compounds can be found in patent publication US12281122B1, “PI3K inhibitors” (Cogent Biosciences, Inc., priority 2023, dated 2025).

Structures are written as SMILES. Some results are limits rather than exact numbers.

For test [1], the system named is SKBR3 (PI3Kα-Wild Type) cell line. Kind of test: HTRF phospho-AKT(S473) cell assay in SKBR3 cells. It counts as cell-based, human. The gist of the method: (§1)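 pAKT(S473) in lysates read by HTRF after a 2 h, 37 °C compound exposure (12-point 1:3 series, max 0.5% DMSO). SKBR3 (wild type, top 10 μM) received 70 ng/ml PDGF-BB during the final 15 min; T47D (H1047R, top 5 μM) was unstimulated. IC50 values derived from the dose-response.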

For test [2], the system named is T47D (PI3Kα-H1047R) cell line. Kind of test: HTRF phospho-AKT(S473) cell assay in T47D cells. It counts as cell-based, human. The gist of the method: as §1
The mark [3] stands for this setting: Homo sapiens, SK-BR-3; SKBR3 (PI3Kα-Wild Type) cells, HTRF phospho-AKT(S473), 2 hours compound incubation, PDGF-BB stimulated.
Where [4] appears, read: Homo sapiens; T47D (PI3Kα-H1047R) cells, HTRF phospho-AKT(S473), 2 hours compound incubation.
Where [5] appears, read: Homo sapiens, SK-BR-3; HTRF phospho-AKT(S473), SKBR3 (PI3Kα-Wild Type) cells, 2 hours compound incubation, PDGF-BB stimulated.
Where [6] appears, read: Homo sapiens; HTRF phospho-AKT(S473), T47D (PI3Kα-H1047R) cells, 2 hours compound incubation.

`Cc1cc([C@@H](C)Nc2ccc(Cl)nc2C(=O)NS(C)(=O)=O)c2nc(N3Cc4cccc(-c5ccnn5C)c4C3)n(C)c(=O)c2c1` [Compound 274, (R)-6-chloro-3-((1-(3,6-dimethyl-2-(4-(1-methyl-1H-pyrazol-5-yl)isoindolin-2-yl)-4-oxo-3,4-dihydroquinazolin-8-yl)ethyl)amino)-N-(methylsulfonyl) picolinamide]: the IC50 in test [1] (setting [3]) is 1000 to 5000 nM; in test [2] (setting [4]), < 250 nM.
For `Cc1cc([C@@H](C)Nc2ccc(Cl)nc2C(=O)NS(C)(=O)=O)c2nc(N3CC[C@H](Oc4cnn(C)c4)C3)n(C)c(=O)c2c1` [Compound 331, 6-chloro-3-(((R)-1-(3,6-dimethyl-2-((S)-3-((1-methyl-1H-pyrazol-4-yl)oxy)pyrrolidin-1-yl)-4-oxo-3,4-dihydroquinazolin-8-yl)ethyl)amino)-N-(methylsulfonyl) picolinamide], the IC50 was 1000 to 5000 nM in test [1] (setting [3]) and < 250 nM in test [2] (setting [4]).
For the compound `Cc1cc([C@@H](C)Nc2ccc(Cl)nc2C(=O)NS(C)(=O)=O)c2nc(-c3ccc4c(c3)C(=O)N(C)CC4)n(C)c(=O)c2c1` [Compound 779, (R)-6-chloro-3-((1-(3,6-dimethyl-2-(2-methyl-1-oxo-1,2,3,4-tetrahydroisoquinolin-7-yl)-4-oxo-3,4-dihydroquinazolin-8-yl)ethyl)amino)-N-(methylsulfonyl) picolinamide], the 50% inhibitory concentration (IC50) in test [1] (setting [5]) is 1000 to 5000 nM; in test [2] (setting [6]) it was < 250 nM.
Take `Cc1cc([C@@H](C)Nc2ccc(Cl)nc2C(=O)NS(C)(=O)=O)c2nc(N3CCC(n4cc(-c5ccccc5)cn4)CC3)n(C)c(=O)c2c1` [Compound 235, (R)-6-chloro-3-((1-(3,6-dimethyl-4-oxo-2-(4-(4-phenyl-1H-pyrazol-1-yl)piperidin-1-yl)-3,4-dihydroquinazolin-8-yl)ethyl)amino)-N-(methylsulfonyl) picolinamide]: the IC50 was ≥ 5000 nM in test [1] (setting [3]) and 250 to 500 nM in test [2] (setting [4]).
Regarding `Cc1cc([C@@H](C)Nc2ccc(Cl)nc2C(=O)NS(C)(=O)=O)c2nc(N3CCN(c4cnccn4)CC3)n(C)c(=O)c2c1` [Compound 714, (R)-6-chloro-3-((1-(3,6-dimethyl-4-oxo-2-(4-(pyrazin-2-yl)piperazin-1-yl)-3,4-dihydroquinazolin-8-yl)ethyl)amino)-N-(methylsulfonyl) picolinamide], the IC50 was 1000 to 5000 nM in test [1] (setting [5]) and < 250 nM in test [2] (setting [6]).
In the case of `CCn1c(N2Cc3cn(CC(F)(F)F)nc3C2)nc2c([C@@H](C)Nc3ccc(Cl)nc3C(=O)NS(C)(=O)=O)cc(C)cc2c1=O` [Compound 732, (R)-6-chloro-3-((1-(3-ethyl-6-methyl-4-oxo-2-(2-(2,2,2-trifluoroethyl)-2,6-dihydropyrrolo[3,4-c]pyrazol-5(4H)-yl)-3,4-dihydroquinazolin-8-yl)ethyl)amino)-N-(methylsulfonyl) picolinamide], the IC50 in test [1] (setting [5]) is 1000 to 5000 nM; in test [2] (setting [6]), < 250 nM.
On to `Cc1cc([C@@H](C)Nc2ccc(Cl)nc2C(=O)NS(C)(=O)=O)c2nc(N3C[C@@H]4[C@H](C3)[C@H]4c3cnc(C)nc3C)n(C)c(=O)c2c1` [Compound 578, 6-chloro-3-(((R)-1-(2-((1R,5S,6S)-6-(2,4-dimethylpyrimidin-5-yl)-3-azabicyclo[3.1.0]hexan-3-yl)-3,6-dimethyl-4-oxo-3,4-dihydroquinazolin-8-yl)ethyl)amino)-N-(methylsulfonyl) picolinamide], for which the IC50 in test [1] (setting [5]) was 1000 to 5000 nM; in test [2] (setting [6]) it was < 250 nM.
In the case of `COc1ccccc1-n1cc2c(n1)CN(c1nc3c([C@@H](C)Nc4ccc(Cl)nc4C(=O)NS(C)(=O)=O)cc(C)cc3c(=O)n1C)C2` [Compound 705, (R)-6-chloro-3-((1-(2-(2-(2-methoxyphenyl)-2,6-dihydropyrrolo[3,4-c]pyrazol-5(4H)-yl)-3,6-dimethyl-4-oxo-3,4-dihydroquinazolin-8-yl)ethyl)amino)-N-(methylsulfonyl) picolinamide], the results for the IC50 in test [1] (setting [5]) and in test [2] (setting [6]) were ≥ 5000 nM and 250 to 500 nM, respectively.
`Cc1cc([C@@H](C)Nc2ccc(Cl)nc2C(=O)NS(C)(=O)=O)c2nc(N3C[C@@H]4CC(n5cc(C)cn5)C[C@H]4C3)n(C)c(=O)c2c1` (single isomer, unassigned) [Compound 367, 6-chloro-3-(((R)-1-(3,6-dimethyl-2-((3aR*,6aR*)-5-(4-methyl-1H-pyrazol-1-yl)hexahydrocyclopenta [c]pyrrol-2(1H)-yl)-4-oxo-3,4-dihydroquinazolin-8-yl)ethyl)amino)-N-(methylsulfonyl) picolinamide]: the IC50 was ≥ 5000 nM in test [1] (setting [3]) and < 250 nM in test [2] (setting [4]).
On to `Cc1cc([C@@H](C)Nc2ccc(Cl)nc2C(=O)NS(C)(=O)=O)c2nc(N3Cc4cn(CC(F)F)nc4C3)n(C)c(=O)c2c1` [Compound 230, (R)-6-chloro-3-((1-(2-(2-(2,2-difluoroethyl)-2,6-dihydropyrrolo[3,4-c]pyrazol-5(4H)-yl)-3,6-dimethyl-4-oxo-3,4-dihydroquinazolin-8-yl)ethyl)amino)-N-(methylsulfonyl) picolinamide], for which the values for the IC50 in test [1] (setting [3]) and in test [2] (setting [4]) were 1000 to 5000 nM and < 250 nM, respectively.
In the case of `COc1cnc(C2CCN(c3nc4c([C@@H](C)Nc5ccc(Cl)nc5C(=O)NS(C)(=O)=O)cc(C)cc4c(=O)n3C)CC2)cn1` [Compound 408, (R)-6-chloro-3-((1-(2-(4-(5-methoxypyrazin-2-yl)piperidin-1-yl)-3,6-dimethyl-4-oxo-3,4-dihydroquinazolin-8-yl)ethyl)amino)-N-(methylsulfonyl) picolinamide], the values for the IC50 in test [1] (setting [3]) and in test [2] (setting [4]) were ≥ 5000 nM and < 250 nM, respectively.
For `Cc1cc([C@@H](C)Nc2ccc(Cl)nc2C(=O)NS(C)(=O)=O)c2nc(N3CCn4nccc4C3)n(C)c(=O)c2c1` [Compound 765, (R)-6-chloro-3-((1-(2-(6,7-dihydropyrazolo[1,5-a]pyrazin-5(4H)-yl)-3,6-dimethyl-4-oxo-3,4-dihydroquinazolin-8-yl)ethyl)amino)-N-(methylsulfonyl) picolinamide], the IC50 is 1000 to 5000 nM in test [1] (setting [5]) and 250 to 500 nM in test [2] (setting [6]).
Turning to `Cc1cc([C@@H](C)Nc2ccc(Cl)nc2C(=O)NS(C)(=O)=O)c2nc(N3CCC(n4cc(C)nn4)CC3)n(C)c(=O)c2c1` [Compound 716, (R)-6-chloro-3-((1-(3,6-dimethyl-2-(4-(4-methyl-1H-1,2,3-triazol-1-yl)piperidin-1-yl)-4-oxo-3,4-dihydroquinazolin-8-yl)ethyl)amino)-N-(methylsulfonyl) picolinamide], the results for the half-inhibitory concentration (IC50) in test [1] (setting [5]) and in test [2] (setting [6]) were 1000 to 5000 nM and < 250 nM, respectively.
The like results for `Cc1ccc(N2C[C@@H]3C[C@H]2CN3c2nc3c([C@@H](C)Nc4ccc(Cl)nc4C(=O)NS(C)(=O)=O)cc(C)cc3c(=O)n2C)nc1` [Compound 663, 6-chloro-3-(((R)-1-(3,6-dimethyl-2-((1S,4S)-5-(5-methylpyridin-2-yl)-2,5-diazabicyclo [2.2.1]heptan-2-yl)-4-oxo-3,4-dihydroquinazolin-8-yl)ethyl)amino)-N-(methylsulfonyl) picolinamide] were, in that order, > 5000 nM and 500 to 1000 nM.
The like results for `Cc1cc([C@@H](C)Nc2ccc(Cl)nc2C(=O)NS(C)(=O)=O)c2nc(N3C[C@@H]4[C@H](C3)[C@H]4n3ccccc3=O)n(C)c(=O)c2c1` [Compound 755, 6-chloro-3-(((R)-1-(3,6-dimethyl-4-oxo-2-((1R,5S,6S)-6-(2-oxopyridin-1(2H)-yl)-3-azabicyclo[3.1.0]hexan-3-yl)-3,4-dihydroquinazolin-8-yl)ethyl)amino)-N-(methylsulfonyl) picolinamide] were, in that order, 1000 to 5000 nM and 250 to 500 nM.
The matching figures for `COc1cccc(N2CCN(c3nc4c([C@@H](C)Nc5ccc(Cl)nc5C(=O)NS(C)(=O)=O)cc(C)cc4c(=O)n3C)CC2)n1` [Compound 596, (R)-6-chloro-3-((1-(2-(4-(6-methoxypyridin-2-yl)piperazin-1-yl)-3,6-dimethyl-4-oxo-3,4-dihydroquinazolin-8-yl)ethyl)amino)-N-(methylsulfonyl) picolinamide]: ≥ 5000 nM and 250 to 500 nM.
With `Cc1cc([C@@H](C)Nc2ccc(Cl)nc2C(=O)NS(C)(=O)=O)c2nc(N3CCC(C)(c4nn(C)cc4F)CC3)n(C)c(=O)c2c1` [Compound 406, (R)-6-chloro-3-((1-(2-(4-(4-fluoro-1-methyl-1H-pyrazol-3-yl)-4-methylpiperidin-1-yl)-3,6-dimethyl-4-oxo-3,4-dihydroquinazolin-8-yl)ethyl)amino)-N-(methylsulfonyl) picolinamide], the IC50 is ≥ 5000 nM in test [1] (setting [3]) and 250 to 500 nM in test [2] (setting [4]).
As for `Cc1cc([C@@H](C)Nc2ccc(Cl)nc2C(=O)NS(C)(=O)=O)c2nc(-c3ccc4nn(CCO)cc4c3)n(C)c(=O)c2c1` [Compound 797, (R)-6-chloro-3-((1-(2-(2-(2-hydroxyethyl)-2H-indazol-5-yl)-3,6-dimethyl-4-oxo-3,4-dihydroquinazolin-8-yl)ethyl)amino)-N-(methylsulfonyl) picolinamide], the IC50 was 1000 to 5000 nM in test [1] (setting [5]) and < 250 nM in test [2] (setting [6]).
With `Cc1cc([C@@H](C)Nc2ccc(Cl)nc2C(=O)NS(C)(=O)=O)c2nc(N3C[C@@H]4[C@H](C3)[C@H]4c3cnc(C)cn3)n(C)c(=O)c2c1` [Compound 394, 6-chloro-3-(((R)-1-(3,6-dimethyl-2-((1R,5S,6R)-6-(5-methylpyrazin-2-yl)-3-azabicyclo[3.1.0]hexan-3-yl)-4-oxo-3,4-dihydroquinazolin-8-yl)ethyl)amino)-N-(methylsulfonyl) picolinamide], the IC50 was 1000 to 5000 nM in test [1] (setting [3]) and < 250 nM in test [2] (setting [4]).
